Measured values as given in patent publication US20230140216A1, “COMBINATION THERAPY FOR TREATING MPS1” (GAIN THERAPEUTICS SA, priority 2020, published 2023).

Target: T1, Recombinant human α-L-iduronidase protein (Homo sapiens, UniProt P35475)
T1 construct: purchased R&D
T1 sequence (P35475 28-653): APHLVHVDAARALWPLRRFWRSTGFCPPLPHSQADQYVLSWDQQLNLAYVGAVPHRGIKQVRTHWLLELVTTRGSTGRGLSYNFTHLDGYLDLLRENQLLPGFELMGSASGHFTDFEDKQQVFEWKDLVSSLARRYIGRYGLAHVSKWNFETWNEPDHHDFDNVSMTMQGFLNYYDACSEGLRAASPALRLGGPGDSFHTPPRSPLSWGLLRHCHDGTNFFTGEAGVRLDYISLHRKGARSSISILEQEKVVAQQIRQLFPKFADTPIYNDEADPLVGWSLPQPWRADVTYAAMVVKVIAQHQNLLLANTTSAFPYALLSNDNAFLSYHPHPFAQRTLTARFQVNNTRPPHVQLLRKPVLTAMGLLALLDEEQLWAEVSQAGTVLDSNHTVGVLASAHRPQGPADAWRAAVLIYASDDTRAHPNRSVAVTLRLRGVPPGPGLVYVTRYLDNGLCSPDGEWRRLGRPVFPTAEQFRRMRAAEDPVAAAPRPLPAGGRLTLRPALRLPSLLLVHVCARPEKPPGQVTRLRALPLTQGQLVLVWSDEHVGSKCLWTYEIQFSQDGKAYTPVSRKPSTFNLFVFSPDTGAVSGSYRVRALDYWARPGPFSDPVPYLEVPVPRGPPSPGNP
Assay: Differential scanning fluorimetry (DSF) thermal stabilization;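 further: Classes count stabilization of α-L-iduronidase despite the GALC label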
Type: binding
Conditions: ΔTm class
Protocol: The capacity of Compounds of the Disclosure to stabilize α-L-iduronidase was assessed by differential scanning fluorimetry technique. The thermal denaturation of purified human native enzyme was monitored in the presence of the extrinsic fluorescent probe SYPRO Orange (Sigma-Aldrich, St. Louis, MO). The tested compounds were dissolved in 100% DMSO and diluted into the protein buffer to achieve final concentrations of 1% DMSO.
Recombinant human α-L-iduronidase protein (purchased from R&D) 12.5 µL of 1.5 µM in 100 mM Hepes 20 mM MgCl2 pH 7 (protein final concentration 0.75 µM) with Sypro Orange 10X and 12.5 µl of the different compound solutions were dispensed into 96-well PCR-plates. The intensity of SYPRO Orange fluorescence after a systematic increase of temperature was monitored in the Roche LightCycler® 480 II device (Roche Diagnostics).
The capacity to stabilize α-L-iduronidase is denoted as follows: • ΔTm GALC > 1 is shown as A; • ΔTm GALC between 0.5 and 1 is shown as B; • ΔTm GALC between 0.1 and 0.5 is shown as C; and • ΔTm GALC less than 0.1 is shown as D.

[1] = commercially available Examples 8-37

Structure (SMILES) | DSF Activity range [1] | DSF Activity range (synthetized Examples 38-94)
CN(CC(=O)Nc1ccc(Cl)c(Cl)c1)Cc1nc2c(cnn2C)c(=O)[nH]1 [Example 30, N-(3,4-dichlorophenyl)-2-(methyl((1-methyl-4-oxo-4,5-dihydro-1H-pyrazolo[3,4-d]pyrimidin-6-yl)methyl)amino)acetamide] | B (ΔTm GALC between 0.5 and 1 is shown as B) | –
Cc1ccc(NC(=O)CN(C)Cc2nc3c(cnn3C)c(=O)[nH]2)cc1 [Example 31, 2-(methyl((1-methyl-4-oxo-4,5-dihydro-1H-pyrazolo[3,4-d]pyrimidin-6-yl)methyl)amino)-N-(p-tolyl)acetamide] | C (ΔTm GALC between 0.1 and 0.5 is shown as C) | –
CN(CC(=O)Nc1cccc(F)c1)Cc1nc2c(cnn2C)c(=O)[nH]1 [Example 32, N-(3-fluorophenyl)-2-(methyl((1-methyl-4-oxo-4,5-dihydro-1H-pyrazolo[3,4-d]pyrimidin-6-yl)methyl)amino)acetamide] | D (ΔTm GALC less than 0.1 is shown as D) | –
CN(CC(=O)Nc1ccccc1)Cc1nc2c(cnn2C)c(=O)[nH]1 [Example 33, 2-(methyl((1-methyl-4-oxo-4,5-dihydro-1H-pyrazolo[3,4-d]pyrimidin-6-yl)methyl)amino)-N-phenylacetamide] | C (ΔTm GALC between 0.1 and 0.5 is shown as C) | –
COCCNC(=O)CN(C)Cc1nc2c(cnn2C)c(=O)[nH]1 [Example 34, N-(2-methoxyethyl)-2-(methyl((1-methyl-4-oxo-4,5-dihydro-1H-pyrazolo[3,4-d]pyrimidin-6-yl)methyl)amino)acetamide] | D (ΔTm GALC less than 0.1 is shown as D) | –
CN(CC(=O)N1CCCC1)Cc1nc2c(cnn2C)c(=O)[nH]1 [Example 35, 1-methyl-6-((methyl(2-oxo-2-(pyrrolidin-1-yl)ethyl)amino)methyl)-1,5-dihydro-4H-pyrazolo[3,4-d]pyrimidin-4-one] | B (ΔTm GALC between 0.5 and 1 is shown as B) | –
CN(CC(=O)N(C)C)Cc1nc2c(cnn2C)c(=O)[nH]1 [Example 36, N,N-dimethyl-2-(methyl((1-methyl-4-oxo-4,5-dihydro-1H-pyrazolo[3,4-d]pyrimidin-6-yl)methyl)amino)acetamide] | B (ΔTm GALC between 0.5 and 1 is shown as B) | –
CN(CC(=O)N(C)C1CCCCC1)Cc1nc2c(cnn2C)c(=O)[nH]1 [Example 37, N-cyclohexyl-N-methyl-2-(methyl((1-methyl-4-oxo-4,5-dihydro-1H-pyrazolo[3,4-d]pyrimidin-6-yl)methyl)amino)acetamide] | B (ΔTm GALC between 0.5 and 1 is shown as B) | –
Cc1csc2c(=O)[nH]c(CN(C)CC(=O)N3Cc4ccccc4C3)nc12 [Example 38] | – | B (ΔTm GALC between 0.5 and 1 is shown as B)
Cc1csc2c(=O)[nH]c(CN(C)CC(=O)N(C)c3ccccc3Cl)nc12 [Example 41] | – | C (ΔTm GALC between 0.1 and 0.5 is shown as C)
CCN(CC(=O)N(C)c1ccccc1Cl)Cc1nc2c(C)csc2c(=O)[nH]1 [Example 42] | – | C (ΔTm GALC between 0.1 and 0.5 is shown as C)
Cc1csc2c(=O)[nH]c(CN(CC(=O)N(C)c3ccccc3Cl)C3CC3)nc12 [Example 43] | – | D (ΔTm GALC less than 0.1 is shown as D)
CCCN(CC(=O)N(C)c1ccccc1Cl)Cc1nc2c(C)csc2c(=O)[nH]1 [Example 44] | – | B (ΔTm GALC between 0.5 and 1 is shown as B)
Cc1cc2nc(CN(C)CC(=O)N(C)c3ccccc3Cl)[nH]c(=O)c2s1 [Example 45] | – | B (ΔTm GALC between 0.5 and 1 is shown as B)
CCN(CC(=O)N(C)c1ccccc1Cl)Cc1nc2cc(C)sc2c(=O)[nH]1 [Example 46] | – | B (ΔTm GALC between 0.5 and 1 is shown as B)
Cc1cc2nc(CN(CC(=O)N(C)c3ccccc3Cl)C3CC3)[nH]c(=O)c2s1 [Example 47] | – | D (ΔTm GALC less than 0.1 is shown as D)

Structure (SMILES) | DSF Activity range [1] | DSF Activity range (synthetized Examples 38-94)
Cc1csc(N(C)C(=O)CN(C)Cc2nc3c(C)csc3c(=O)[nH]2)n1 [Example 48, N-methyl-2-(methyl((7-methyl-4-oxo-3,4-dihydrothieno[3,2-d]pyrimidin-2-yl)methyl)amino)-N-(4-methylthiazol-2-yl)acetamide] | – | C (ΔTm GALC between 0.1 and 0.5 is shown as C)
CCN(CC(=O)N(C)c1c(Cl)cccc1Cl)Cc1nc2c(C)csc2c(=O)[nH]1 [Example 49, N-(2,6-dichlorophenyl)-2-(ethyl((7-methyl-4-oxo-3,4-dihydrothieno[3,2-d]pyrimidin-2-yl)methyl)amino)-N-methylacetamide] | – | C (ΔTm GALC between 0.1 and 0.5 is shown as C)
Cc1csc2c(=O)[nH]c(CN(C)CC(=O)N(C)c3cccc(F)c3)nc12 [Example 50] | – | B (ΔTm GALC between 0.5 and 1 is shown as B)
Cc1cc2nc(CN(C)CC(=O)N(C)c3cccc(F)c3)[nH]c(=O)c2s1 [Example 51] | – | C (ΔTm GALC between 0.1 and 0.5 is shown as C)
Cc1cc2nc(CN(C)CC(=O)N3CCc4ccccc43)[nH]c(=O)c2s1 [Example 52] | – | B (ΔTm GALC between 0.5 and 1 is shown as B)
Cc1cc2nc(CN(C)CC(=O)N3Cc4ccccc4C3)[nH]c(=O)c2s1 [Example 53] | – | B (ΔTm GALC between 0.5 and 1 is shown as B)
Cc1cc2nc(CN(C)CC(=O)N(C)c3ccc(Cl)c(Cl)c3)[nH]c(=O)c2s1 [Example 55, N-(3,4-dichlorophenyl)-N-methyl-2-(methyl((6-methyl-4-oxo-3,4-dihydrothieno[3,2-d]pyrimidin-2-yl)methyl)amino)acetamide] | – | C (ΔTm GALC between 0.1 and 0.5 is shown as C)
CN(CC(=O)N1Cc2ccccc2C1)Cc1nc2ccc(F)cc2c(=O)[nH]1 [Example 56, 6-fluoro-2-(((2-(isoindolin-2-yl)-2-oxoethyl)(methyl)amino)methyl)quinazolin-4(3H)-one] | – | A (ΔTm GALC > 1 is shown as A)
CN(CC(=O)N1CCc2ccccc21)Cc1nc2ccc(F)cc2c(=O)[nH]1 [Example 57, 6-fluoro-2-(((2-(indolin-1-yl)-2-oxoethyl)(methyl)amino)methyl)quinazolin-4(3H)-one] | – | B (ΔTm GALC between 0.5 and 1 is shown as B)
CN(CC(=O)N(C)c1ccc(Cl)c(Cl)c1)Cc1nc2ccc(F)cc2c(=O)[nH]1 [Example 58, N-(3,4-dichlorophenyl)-2-(((6-fluoro-4-oxo-3,4-dihydroquinazolin-2-yl)methyl)(methyl)amino)-N-methylacetamide] | – | B (ΔTm GALC between 0.5 and 1 is shown as B)
CN(CC(=O)N(C)c1ccccc1Cl)Cc1nc2ccc(F)cc2c(=O)[nH]1 [Example 59] | – | B (ΔTm GALC between 0.5 and 1 is shown as B)
CCN(CC(=O)N(C)c1ccccc1Cl)Cc1nc2ccc(F)cc2c(=O)[nH]1 [Example 60] | – | B (ΔTm GALC between 0.5 and 1 is shown as B)
CN(C(=O)CN(Cc1nc2ccc(F)cc2c(=O)[nH]1)C1CC1)c1ccccc1Cl [Example 61] | – | D (ΔTm GALC less than 0.1 is shown as D)
CCCN(CC(=O)N(C)c1ccccc1Cl)Cc1nc2ccc(F)cc2c(=O)[nH]1 [Example 62] | – | B (ΔTm GALC between 0.5 and 1 is shown as B)
CN(CC(=O)N(C)c1ccccc1Cl)Cc1nc2cc(F)ccc2c(=O)[nH]1 [Example 63] | – | B (ΔTm GALC between 0.5 and 1 is shown as B)
CCN(CC(=O)N(C)c1ccccc1Cl)Cc1nc2cc(F)ccc2c(=O)[nH]1.Cl [Example 64] | – | B (ΔTm GALC between 0.5 and 1 is shown as B)
